Results on five compounds are retold here after PubChem BioAssay AID1745844 (Carcinogenic Potency Database (CPDB), 2022).

Each structure is given as a SMILES string. The source made the active and inactive calls. The rule behind the calls is not given here.

The test system of the data set is rodent lifetime carcinogenesis bioassay, tumor incidence TD50. The data set is described as follows: chronic cancer bioassays in animals – CPDB, compiled studies (AID 1745844).

As a reminder, the TD50 is the dose at which the toxic effect under study appears in half of the subjects. In the case of `CC(C)C/C=N/N(C)C=O`, the TD50 was 151 mg/kg/day (mouse, strain Swiss albino, females, by gavage, site: gall bladder, lesion: adenocarcinoma, dosed 53 weeks, study length 127 weeks); 36.5 mg/kg/day (mouse, strain Swiss albino, females, by gavage, site: gall bladder, lesion: adenoma, dosed 53 weeks, study length 127 weeks); 28.9 mg/kg/day (mouse, strain Swiss albino, females, by gavage, site: gall bladder, lesion: several types, types named in the paper, dosed 53 weeks, study length 127 weeks); 74.6 mg/kg/day (mouse, strain Swiss albino, females, by gavage, site: liver, lesion: hepatocellular carcinoma, dosed 53 weeks, study length 127 weeks); 9.27 mg/kg/day (mouse, strain Swiss albino, females, by gavage, site: liver, lesion: hepatoma, dosed 53 weeks, study length 127 weeks); 7.9 mg/kg/day (mouse, strain Swiss albino, females, by gavage, site: liver, lesion: several types, types named in the paper, dosed 53 weeks, study length 127 weeks). Moreover, the TD50 is, setting by setting: (mouse, strain Swiss albino, females, by gavage, site: lung, lesion: adenocarcinoma, dosed 53 weeks, study length 127 weeks) 8.7 mg/kg/day; (mouse, strain Swiss albino, females, by gavage, site: lung, lesion: adenoma, dosed 53 weeks, study length 127 weeks) 2.39 mg/kg/day; (mouse, strain Swiss albino, females, by gavage, site: lung, lesion: several types, types named in the paper, dosed 53 weeks, study length 127 weeks) 1.99 mg/kg/day; (mouse, strain Swiss albino, males, by gavage, site: gall bladder, lesion: adenoma, dosed 53 weeks, study length 119 weeks) 46.1 mg/kg/day; (mouse, strain Swiss albino, males, by gavage, site: liver, lesion: hepatocellular carcinoma, dosed 53 weeks, study length 119 weeks) 34.2 mg/kg/day; (mouse, strain Swiss albino, males, by gavage, site: liver, lesion: hepatoma, dosed 53 weeks, study length 119 weeks) 8 mg/kg/day. In addition, the TD50 was 5.97 mg/kg/day (mouse, strain Swiss albino, males, by gavage, site: liver, lesion: several types, types named in the paper, dosed 53 weeks, study length 119 weeks); 10.7 mg/kg/day (mouse, strain Swiss albino, males, by gavage, site: lung, lesion: adenocarcinoma, dosed 53 weeks, study length 119 weeks); 3.3 mg/kg/day (mouse, strain Swiss albino, males, by gavage, site: lung, lesion: adenoma, dosed 53 weeks, study length 119 weeks); 2.53 mg/kg/day (mouse, strain Swiss albino, males, by gavage, site: lung, lesion: several types, types named in the paper, dosed 53 weeks, study length 119 weeks); 4.36 mg/kg/day (mouse, strain Swiss albino, males, by gavage, site: preputial gland, lesion: several types, types named in the paper, dosed 53 weeks, study length 119 weeks); 5.59 mg/kg/day (mouse, strain Swiss albino, males, by gavage, site: preputial gland, lesion: squamous-cell carcinoma, dosed 53 weeks, study length 119 weeks). Further, the TD50 (mouse, strain Swiss albino, males, by gavage, site: preputial gland, lesion: squamous-cell papilloma, dosed 53 weeks, study length 119 weeks) worked out at 34.2 mg/kg/day.

In the case of `O=P(O)(O)O`, the TD50 is, setting by setting: (mouse, strain B6C3F1, females, by gavage, site: any site (literature study), lesion: several types, types named in the paper, dosed 103 weeks, study length 105 weeks) 958 mg/kg/day; (mouse, strain B6C3F1, females, by gavage, site: liver, lesion: hepatocellular adenoma + hepatocellular carcinoma + neoplastic nodule, dosed 103 weeks, study length 105 weeks) 3710 mg/kg/day; (mouse, strain B6C3F1, females, by gavage, site: subcutaneous tissue, lesion: sarcoma, NOS, dosed 103 weeks, study length 105 weeks) 1490 mg/kg/day (inactive); (mouse, strain B6C3F1, males, by gavage, site: adrenal gland, lesion: cortical adenoma, dosed 103 weeks, study length 104 weeks) 5840 mg/kg/day (inactive); (mouse, strain B6C3F1, males, by gavage, site: any site (literature study), lesion: several types, types named in the paper, dosed 103 weeks, study length 104 weeks) 11600 mg/kg/day; (mouse, strain B6C3F1, males, by gavage, site: liver, lesion: hepatocellular adenoma + hepatocellular carcinoma + neoplastic nodule, dosed 103 weeks, study length 104 weeks) 2950 mg/kg/day. The TD50 runs as follows: (mouse, strain B6C3F1, males, by gavage, site: lung, lesion: alveolar/bronchiolar adenoma + alveolar/bronchiolar carcinoma, dosed 103 weeks, study length 104 weeks) 19900 mg/kg/day; (mouse, strain B6C3F1, males, by gavage, site: multiple organs, lesion: malignant lymphoma, lymphocytic type, dosed 103 weeks, study length 104 weeks) 8420 mg/kg/day.

As to `CC1=CC(C)(C)N(N=O)c2ccccc21`, the TD50 (rat, strain CB, males, i.p., site: peritoneal cavity, lesion: sarcoma, dosed 26 weeks, study length 100 weeks) is 3.31 mg/kg/day.

Turning to `CCOC(=O)N(C)N=O`, the TD50 (hamster, strain Syrian Golden, both sexes, by gavage, site: esophagus, lesion: epidermoid carcinoma, dosed 27 weeks, study length 73 weeks) was 0.127 mg/kg/day. Moreover, under “hamster, strain Syrian Golden, both sexes, by gavage, site: forestomach, lesion: epidermoid carcinoma, dosed 27 weeks, study length 73 weeks”, the carcinogen call is “positive”.

On to `Nc1ccc2oc3ccccc3c2c1`, for which the carcinogen call (mouse, strain (C57 x IF)F1, females, in feed, site: liver, lesion: several types, types named in the paper, dosed 52 weeks, study length 58 weeks) is “positive”. For the same compound, the TD50 was 8.67 mg/kg/day (mouse, strain (C57 x IF)F1, males, in feed, site: liver, lesion: malignant hepatoma, dosed 52 weeks, study length 67 weeks); 5.73 mg/kg/day (mouse, strain (C57 x IF)F1, males, in feed, site: liver, lesion: several types, types named in the paper, dosed 52 weeks, study length 67 weeks); 22.3 mg/kg/day (mouse, strain (C57 x IF)F1, males, in feed, site: urinary bladder, lesion: carcinoma, dosed 52 weeks, study length 67 weeks).
